Patent EP0162545A2, “Enhanced bioconversion processes” (BETZ EUROPE, INC., priority 1984, dated 1985)

What was measured:
Format in all cases: cell-based
[1] = tested on: Klebsiella; assay: CO2 evolution from 14C-D-glucose, second series; set-up: Cumulative Growth Index Reading (CO2 Blowoff) 0 HR: scale not given here
Protocol: (§1) Experiments to look at the above conclusions in depth were performed. In these experiments, cultures of Klebsiella were challenged with various concentrations of BNS and the effects on C02 evolution from glucose, viability, TOC (Total Organic Carbon), TIC (Total Inorganic Carbon) production, removal, and DO (Dissolved Oxygen) removal were determined. Concentrations of BNS from 0.05 to 100 µg/mL were used. […] CO2 evolution decreased after 5 gg/mL. […] The viability dropped off after that with 99% inhibition at concentrations somewhere between 10 - 20 µg/mL. Organic carbon removal gave the most puzzling pattern. […] CO2 was produced, however, as reflected by the C02 blowoff experiments and the TIC data. The organic carbon being oxidized (removed) must have been cancelled out by an organic carbon addition caused by limited bacterial lysis. This phenomenon was investigated again. […] It appeared that 5 ppm BNS would be the maximum concentration that could be used for the desired effect, with the majority of favorable results occurring in the 0.05 - 2 ppm range.
The experiments coordinating the measurements of C02 evolution, TOC reduction, viable count, and dissolved oxygen (DO) reduction were performed as follows: C02 evolution by Klebsiella was measured as described previously using a narrowed set of BNS concentrations. At the same time, Klebsiella cells grown overnight in nutrient broth were standardized into an inoculum of 250 Klett units. These cells were used to inoculate 19 mL quantities of fresh nutrient broth (1 mL inoculum) in baffled shake flasks. These shake flasks were placed into water bath shakers at 37°C and allowed to shake for 5 hours. Concentrations of BNS equivalent to the C02 blowoff experiment were added to the flasks at the beginning of the experiment. Controls containing no BNS were included for comparisons. Total organic carbon measurements were taken after 5 hours incubation. Viable counts were done at 1 hour, 3 hours, and 5 hours. A parallel experiment was performed using the same setup except that after BNS additions, the flasks were shaken for 30 minutes and then held stationary. DO measurements were taken at 5 hours incubation with the use of a YSI Model 54A oxygen meter.

[2] = tested on: Klebsiella
Protocol: as §1
At 0.05 µg/mL level, TOC removal was equivalent to the untreated control. When BNS concentrations of 0.5 µg/mL were used, TOC removal ceased and in the second series of experiments, TOC levels increased sharply at 0.5 - 2 µg/mL concentrations of BNS. Similar results were obtained when BNS was used to treat bacteria growing in the glucose salts medium. No increases in TOC removal were seen. The TOC concentration increased rapidly at BNS concentration of 0.5 - 2 ppm only to fall back to control levels at 5 ppm. The cells then added TOC to the medium again from 5 - 1000 µg/mL concentrations of BNS. […]
(§2) The experiments coordinating the measurements of C02 evolution, TOC reduction, viable count, and dissolved oxygen (DO) reduction were performed as follows: C02 evolution by Klebsiella was measured as described previously using a narrowed set of BNS concentrations. […] These cells were used to inoculate 19 mL quantities of fresh nutrient broth (1 mL inoculum) in baffled shake flasks. […]

[3] = tested on: Klebsiella; assay: Dissolved oxygen removal in nutrient broth; settings: 5 hours
Protocol: Experiments to look at the above conclusions in depth were performed. In these experiments, cultures of Klebsiella were challenged with various concentrations of BNS and the effects on C02 evolution from glucose, viability, TOC (Total Organic Carbon), TIC (Total Inorganic Carbon) production, removal, and DO (Dissolved Oxygen) removal were determined. Concentrations of BNS from 0.05 to 100 µg/mL were used. […] CO2 evolution decreased after 5 gg/mL. […] The viability dropped off after that with 99% inhibition at concentrations somewhere between 10 - 20 µg/mL. Organic carbon removal gave the most puzzling pattern. […] CO2 was produced, however, as reflected by the C02 blowoff experiments and the TIC data. The organic carbon being oxidized (removed) must have been cancelled out by an organic carbon addition caused by limited bacterial lysis. This phenomenon was investigated again. […]
as §2

[4] = tested on: Klebsiella; assay: microbe, parasite or virus in culture
Protocol: These patterns were the results of Klebsiella cultures having been grown on glucose (^14C-label). In nature, and in waste treatment facilities, many organic carbon compounds, both simple and complex, would be available for degradation. The known uncouplers and BNS were tested for their ability to increase C02 evolution from cultures exposed to the common substrates lactate, glycine, glycerol, and a denatured protein mixture. […] This was expected in the case of glycine but it was thought that a more complex protein might be degraded and portions used for some energyproduction. It was hoped that these compounds might be a more representative group (more abundant in waste treatment) than simple sugars for determining the extent of activity of BNS. […] Lactate, a common intermediate in microbial metabolism, and a compound which would normally be used as an oxidizable substrate for running the cytochrome chain, gave a more representative response. BNS treated cultures gave increased C02 blowoff (an increase as high as 130% at 5 µg/mL) as did both known uncouplers. […] When glycerol was used as the labeled substrate, BNS treated cultures gave increased C02 at concentrations up to 5 µg/mL.
The procedure used for determining the CO2 evolution was similar to the procedure described previously. Cells having been grown overnight in MSM and glucose were centrifuged and resuspended in MSM + glucose (cold) and used as inoculum. No other cold carbon source (unlabeled) was added. ^14C-labeled substrates (lactate, glycerol, etc.) obtained from New England Nuclear were used and supplied the radiolabeled carbon for the detection of ^14CO2. BNS was utilized in concentrations of 0.5 - 10 µg/mL. Fixed concentrations of 5 µg/mL CCCP and DNP were included for comparative purposes. The following data were obtained in these experiments.

In the case of O=[N+]([O-])C(Br)=Cc1ccccc1 [BNS, beta-bromo-beta-nitrostyrene], the “Cumulative Growth Index Reading (CO2 Blowoff) 0 HR” value ([1]; BNS 0.05 μg/mL) is reported as 2, the “Cumulative Growth Index Reading (CO2 Blowoff) 0.5 HR” value ([1]; BNS 0.05 μg/mL) is reported as 762 and the “Cumulative Growth Index Reading (CO2 Blowoff) 1 HR” value ([1]; BNS 0.05 μg/mL) is reported as 1,082. For the same compound, the “Cumulative Growth Index Reading (CO2 Blowoff) 3 HR” value ([1]; BNS 0.05 μg/mL) was 1,642, the “Cumulative Growth Index Reading (CO2 Blowoff) 5 HR” value ([1]; BNS 0.05 μg/mL) was 2,012 and the “Cumulative Growth Index Reading (CO2 Blowoff) 0 HR” value ([1]; BNS 0.1 μg/mL) was 2. The “Cumulative Growth Index Reading (CO2 Blowoff) 0.5 HR” value ([1]; BNS 0.1 μg/mL) was 877, the “Cumulative Growth Index Reading (CO2 Blowoff) 1 HR” value ([1]; BNS 0.1 μg/mL) was 1,197 and the “Cumulative Growth Index Reading (CO2 Blowoff) 3 HR” value ([1]; BNS 0.1 μg/mL) was 1,797. The “Cumulative Growth Index Reading (CO2 Blowoff) 5 HR” value ([1]; BNS 0.1 μg/mL) was 2,197, the “Cumulative Growth Index Reading (CO2 Blowoff) 0 HR” value ([1]; BNS 0.5 μg/mL) was 1 and the “Cumulative Growth Index Reading (CO2 Blowoff) 0.5 HR” value ([1]; BNS 0.5 μg/mL) was 801. The “Cumulative Growth Index Reading (CO2 Blowoff) 1 HR” value ([1]; BNS 0.5 μg/mL) was 1,121, the “Cumulative Growth Index Reading (CO2 Blowoff) 3 HR” value ([1]; BNS 0.5 μg/mL) was 1,761 and the “Cumulative Growth Index Reading (CO2 Blowoff) 5 HR” value ([1]; BNS 0.5 μg/mL) was 2,201. For the same compound, the “Cumulative Growth Index Reading (CO2 Blowoff) 0 HR” value ([1]; BNS 1.0 μg/mL) was 1, the “Cumulative Growth Index Reading (CO2 Blowoff) 0.5 HR” value ([1]; BNS 1.0 μg/mL) was 761 and the “Cumulative Growth Index Reading (CO2 Blowoff) 1 HR” value ([1]; BNS 1.0 μg/mL) was 1,091. For the same compound, the “Cumulative Growth Index Reading (CO2 Blowoff) 3 HR” value ([1]; BNS 1.0 μg/mL) was 1,741, the “Cumulative Growth Index Reading (CO2 Blowoff) 5 HR” value ([1]; BNS 1.0 μg/mL) was 2,201 and the “Cumulative Growth Index Reading (CO2 Blowoff) 0 HR” value ([1]; BNS 2 μg/mL) was 2. For the same compound, the “Cumulative Growth Index Reading (CO2 Blowoff) 0.5 HR” value ([1]; BNS 2 μg/mL) was 752, the “Cumulative Growth Index Reading (CO2 Blowoff) 1 HR” value ([1]; BNS 2 μg/mL) was 1,072 and the “Cumulative Growth Index Reading (CO2 Blowoff) 3 HR” value ([1]; BNS 2 μg/mL) was 1,732. For the same compound, the “Cumulative Growth Index Reading (CO2 Blowoff) 5 HR” value ([1]; BNS 2 μg/mL) was 2,212, the “Cumulative Growth Index Reading (CO2 Blowoff) 0 HR” value ([1]; BNS 5 μg/mL) was 0 and the “Cumulative Growth Index Reading (CO2 Blowoff) 0.5 HR” value ([1]; BNS 5 μg/mL) was 750. For the same compound, the “Cumulative Growth Index Reading (CO2 Blowoff) 1 HR” value ([1]; BNS 5 μg/mL) was 1,032, the “Cumulative Growth Index Reading (CO2 Blowoff) 3 HR” value ([1]; BNS 5 μg/mL) was 1,570 and the “Cumulative Growth Index Reading (CO2 Blowoff) 5 HR” value ([1]; BNS 5 μg/mL) was 1,980. For the same compound, the “Cumulative Growth Index Reading (CO2 Blowoff) 0 HR” value ([1]; BNS 10 μg/mL) was 2, the “Cumulative Growth Index Reading (CO2 Blowoff) 0.5 HR” value ([1]; BNS 10 μg/mL) was 682 and the “Cumulative Growth Index Reading (CO2 Blowoff) 1 HR” value ([1]; BNS 10 μg/mL) was 952. The “Cumulative Growth Index Reading (CO2 Blowoff) 3 HR” value ([1]; BNS 10 μg/mL) was 1,392, the “Cumulative Growth Index Reading (CO2 Blowoff) 5 HR” value ([1]; BNS 10 μg/mL) was 1,662 and the “Cumulative Growth Index Reading (CO2 Blowoff) 0 HR” value ([1]; BNS 20 μg/mL) was 1. For the same compound, the “Cumulative Growth Index Reading (CO2 Blowoff) 0.5 HR” value ([1]; BNS 20 μg/mL) was 451, the “Cumulative Growth Index Reading (CO2 Blowoff) 1 HR” value ([1]; BNS 20 μg/mL) was 616 and the “Cumulative Growth Index Reading (CO2 Blowoff) 3 HR” value ([1]; BNS 20 μg/mL) was 916. The “Cumulative Growth Index Reading (CO2 Blowoff) 5 HR” value ([1]; BNS 20 μg/mL) was 1,101, the “Cumulative Growth Index Reading (CO2 Blowoff) 0 HR” value ([1]; BNS 50 μg/mL) was 1 and the “Cumulative Growth Index Reading (CO2 Blowoff) 0.5 HR” value ([1]; BNS 50 μg/mL) was 271. The “Cumulative Growth Index Reading (CO2 Blowoff) 1 HR” value ([1]; BNS 50 μg/mL) was 381, the “Cumulative Growth Index Reading (CO2 Blowoff) 3 HR” value ([1]; BNS 50 μg/mL) was 651 and the “Cumulative Growth Index Reading (CO2 Blowoff) 5 HR” value ([1]; BNS 50 μg/mL) was 876. For the same compound, the “Cumulative Growth Index Reading (CO2 Blowoff) 0 HR” value ([1]; BNS 100 μg/mL) was 2, the “Cumulative Growth Index Reading (CO2 Blowoff) 0.5 HR” value ([1]; BNS 100 μg/mL) was 97 and the “Cumulative Growth Index Reading (CO2 Blowoff) 1 HR” value ([1]; BNS 100 μg/mL) was 202. The “Cumulative Growth Index Reading (CO2 Blowoff) 3 HR” value ([1]; BNS 100 μg/mL) was 287, the “Cumulative Growth Index Reading (CO2 Blowoff) 5 HR” value ([1]; BNS 100 μg/mL) was 365 and the “concentration for 99% inhibition of viability” value [2] was 10000 to 20000 ng/mL. The “concentrations at which cells retained viability equal to the control level” value [2] was “up to 2 µg/mL”, the “concentrations of significant toxicity” value [2] was 5000 to 10000 ng/mL and the “concentrations at which oxygen was consumed at levels approaching control values” [3] was “up to 2 ppm”. For the same compound, the activation at 5 µg/mL ([4]; Klebsiella, 14C-lactate as labeled substrate, 5 µg/mL, read-out: increase in C02 blowoff) was 130%, the “concentrations giving increased C02” value ([4]; glycerol as the labeled substrate) was “up to 5 µg/mL” and the “effect on CO2 evolution” value ([4]; glycine as the labeled substrate) was “either no effect or a toxic effect”.
